# Laboratory results as given in patent US6300313A, “Means for treating prostate hypertrophy and prostate cancer” (ASTA Medica Aktiengesellschaft, priority 1999, dated 2001).
# Non-standard residues stand in square brackets, D forms with d. Residues, ends and D or L forms follow the SMILES beside them. dPhe(4-Cl) = N[C@H](Cc1ccc(Cl)cc1)C(=O)O; d2Nal = N[C@H](Cc1ccc2ccccc2c1)C(=O)O; dCit = NC(=O)NCCC[C@@H](N)C(=O)O; d3Pal = N[C@H](Cc1cccnc1)C(=O)O
# Experiments:
# BPH = test: Clinical therapy of BPH with Cetrorelix (Example 1); format: in vivo, patients; settings: Example 1 therapy regimen
# Protocol: Cetrorelix is administered in a dose of 0.5 mg to 2 mg daily for 4 to 8 weeks for the therapy of BPH. A dose of 5 mg to 30 mg, dispensed once per week or every 10 days also over a time period of 4 to 8 weeks as well as one every two weeks or one injection per month of 20 mg to 60 mg can also decisively improve the clinical symptoms and signs. […] The prostate volume decreases by 20 to 40% during the treatment time of 4 to 8 weeks. […] In addition, at least 30% of the patients achieve an improvement of the urine flow of 6 ml/sec with this therapy. This is almost equivalent to an improvement like that associated with the golden standard operation, and in considerably shorter time. […] These clinical benefits continue for at least 3 to 6 months after therapy. This allows a long-term therapy of BPH with only an intermittent treatment of 2 to max. 4 injection cycles over 4 to 8 weeks.
# BPH patients = settings: 500 μg every 12 hours for 4 weeks, cited from earlier work
# [1] = tested on: Prostate carcinoma patients; settings: cited from earlier work
structure (smiles),measurement,setting,value
CC(=O)N[C@H](Cc1ccc2ccccc2c1)C(=O)N[C@H](Cc1ccc(Cl)cc1)C(=O)N[C@H](Cc1cccnc1)C(=O)N[C@@H](CO)C(=O)N[C@@H](Cc1ccc(O)cc1)C(=O)N[C@H](CCCNC(N)=O)C(=O)N[C@@H](CC(C)C)C(=O)N[C@@H](CCCNC(=N)N)C(=O)N1CCC[C@H]1C(=O)N[C@H](C)C(N)=O [Cetrorelix] (Ac-[d2Nal][dPhe(4-Cl)][d3Pal]SY[dCit]LRP[dA]-NH2),quality of life,BPH,significant improvements
same,sexual performance,BPH,No limitations in sexual performance are observed
same,testosterone level,BPH,"Submaximal decreases of testosterone occur, but these are above those levels associated with castration"
same,increase of the peak flow of the urine,BPH; 4 to 8 weeks,approximately 3 ml/sec
same,patients achieving an improvement of the urine flow of 6 ml/sec,BPH; 4 to 8 weeks,at least 30%
same,symptoms of dysuria and prostate volume,BPH patients,distinct decrease
same,"testosterone levels, initially",BPH patients; initial phase,lowering in testosterone levels to a castration level
same,testosterone levels in the course of treatment,BPH patients; no castration values during the last three weeks,fluctuated at subnormal levels
same,"testosterone levels, initially","[1]; 500 μg every 12 hours for 6 weeks, initial phase",lowering in testosterone levels to a castration level
same,overall condition of the patient,[1]; end of the 6 weeks of therapy,considerable improvement
same,testosterone values at the end of therapy,[1]; end of the 6 weeks of therapy,castration levels
